Experiments:
[1] = target: T1, Staphylococcus aureus dihydrofolate reductase (SaDHFR), wild type (Staphylococcus aureus, UniProt P0A017); experiment: X-ray crystal structure (re-refined from 4XEC data and newly deposited); also enzyme inhibition with t-NADPH pre-incubation (Fig E in S1 Text); assay type: binding
T1 construct: gene folA

[2] = target: T1, Staphylococcus aureus dihydrofolate reductase (SaDHFR), wild type; experiment: X-ray crystal structure (ternary with R-27); enzyme inhibition assay with isolated t-NADPH; assay type: biochemical

T1 sequence (P0A017 2-159): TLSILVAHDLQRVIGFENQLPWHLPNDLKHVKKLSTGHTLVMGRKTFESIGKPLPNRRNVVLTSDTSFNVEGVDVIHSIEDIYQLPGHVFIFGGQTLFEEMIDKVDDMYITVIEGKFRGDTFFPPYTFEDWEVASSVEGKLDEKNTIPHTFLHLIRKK

SMILES: CCc1nc(N)nc(N)c1C#C[C@H](C)c1cc(OC)cc(-c2ccncc2)c1 [R-27]
- X-ray crystal structure (re-refined from 4XEC data and newly deposited); also en [1]: the PDB ID for R-27:t-NADPH:SaDHFR is 7T7S

SMILES: NC(=O)C1=CN2[C@@H]3O[C@H](COP(=O)(O)OP(=O)(O)OC[C@H]4O[C@@H](n5cnc6c(N)ncnc65)[C@H](OP(=O)(O)O)[C@@H]4O)[C@@H](O)[C@H]3O[C@@H]2CC1 [t-NADPH]
- IC50 [2]: 111 ± 6 µM

Reference: paper PMC8865654, “Chiral evasion and stereospecific antifolate resistance in Staphylococcus aureus” (PLoS Computational Biology, 2022)
